Measurements: patent US10494364B2, “Cathepsin K inhibitors and application thereof” (SUNSHINE LAKE PHARMA CO., LTD., priority 2015, dated 2019)
Where two headings read alike, the source gives them in different places.

Tests used:
[1] = biological target: T1, human cathepsin K (Homo sapiens, UniProt P43235); test: Assay of cathepsin K inhibitory activity in vitro; type: biochemical; settings: IC50 against human cathepsin K; substrate Z-Phe-Arg-AMC 10 μM; 25° C.; read-out: Cat-K
T1 sequence (P43235 115-329): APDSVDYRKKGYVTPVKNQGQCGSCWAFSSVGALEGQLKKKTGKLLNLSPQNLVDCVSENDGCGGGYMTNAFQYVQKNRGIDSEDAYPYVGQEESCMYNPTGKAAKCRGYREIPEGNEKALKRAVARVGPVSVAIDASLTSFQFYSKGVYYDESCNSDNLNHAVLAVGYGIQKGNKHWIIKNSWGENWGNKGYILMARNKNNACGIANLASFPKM
Procedure: Assay Method of Cathepsin K Inhibitory Activity In Vitro
Using 45000-fold diluted cathepsin K solution and 10 μM Z-Phe-Arg-AMC as substrate, the test compound and cathepsin K solution were incubated at 25° C. for 15 min in a 15 μL reaction system according to the optimized experimental condition.

[2] = biological target: human cathepsin S (Homo sapiens, UniProt P25774); test: Assay of cathepsin S inhibitory activity in vitro; type: biochemical; settings: IC50 against human cathepsin S; substrate Z-VVR-AMC 20 μM; 25° C.; read-out: Cat-S
Procedure: Assay Method of Cathepsin S Inhibitory Activity In Vitro
0.25 ng/L was the final concentration of Cathepsin S in the enzyme reaction, and Z-VVR-AMC with the final concentration of 20 μM was added into the reaction system as substrate, in the reaction system the test compound and enzyme had been incubated at 25° C. for 15 min.

[3] = Pharmacokinetic test in SD rats (iv and oral gavage), plasma by LC/MS/MS; type: in vivo; settings: rat, male SD rats; for AUC(0-inf): read-out: AUCINF h * ng/ml; for AUC(0-t): read-out: AUClast h * ng/ml; for half-life: read-out: T1/2 h (converted)
Procedure: Healthy adult male SD rats were divided into groups with administration of compound by intravenous injection and oral gavage.
2. Preparation of the Test Compound Solution:
A certain amount of the test compound was weighed, and then mixed with 5% DMSO, 10% Kolliphor HS15 and 85% Saline to prepare a clarified solution.
3. Administration and Sample Collection:
All groups were fasted for 12 hours before administering, free drinking, and fed at 3 hours after administration. Each group was administered with test compound by vein intravenous (iv, 1 mg/kg) in the hind foot and oral gavage (po, 5 mg/kg) independently. The blood samples were collected from tail vein at the time point of 0 h, 0.083 h, 0.25 h, 0.5 h, 1 h, 2 h, 4 h, 6 h, 8 h and 24 h after administration and the amount of blood sample collected at each time point was about 200-400 μL. The blood samples collected at each time point were independently placed in K2EDTA anticoagulation tube and preserved in the incubator containing ice packs. The plasma of each blood sample above was separated by centrifugation at 4600 r/min at 4° C. for 5 min in 15 minutes after collecting. The plasma samples were preserved at −80° C. for measuring.
The content of the compound in plasma of rat after administration was determined by LC/MS/MS method.

[4] = biological target: human cathepsin L (Homo sapiens, UniProt P07711); test: Assay of cathepsin L inhibitory activity in vitro; type: biochemical; settings: IC50 against human cathepsin L; substrate Z-Phe-Arg-AMC 10 μM; 25° C.; read-out: Cat-L
Procedure: Assay Method of Cathepsin L Inhibitory Activity In Vitro
0.01 ng/μL was the final concentration of Cathepsin L in the enzyme reaction, and Z-Phe-Arg-AMC with the final concentration of 10 μM was added into the reaction system as substrate, in the reaction system the test compound and enzyme had been incubated at 25° C. for 15 min.

[5] = biological target: human cathepsin B (Homo sapiens, UniProt P07858); test: Assay of cathepsin B inhibitory activity in vitro; type: biochemical; settings: IC50 against human cathepsin B; substrate Z-Phe-Arg-AMC 10 μM; 25° C.; read-out: Cat-B
Procedure: Assay Method of Cathepsin B Inhibitory Activity In Vitro
0.01 ng/μL was the final concentration of Cathepsin B in the enzyme reaction, and Z-Phe-Arg-AMC with the final concentration of 10 μM was added into the reaction system as substrate, in the reaction system the test compound and enzyme had been incubated at 25° C. for 15 min.

human cathepsin L, sequence (P07711 114-333): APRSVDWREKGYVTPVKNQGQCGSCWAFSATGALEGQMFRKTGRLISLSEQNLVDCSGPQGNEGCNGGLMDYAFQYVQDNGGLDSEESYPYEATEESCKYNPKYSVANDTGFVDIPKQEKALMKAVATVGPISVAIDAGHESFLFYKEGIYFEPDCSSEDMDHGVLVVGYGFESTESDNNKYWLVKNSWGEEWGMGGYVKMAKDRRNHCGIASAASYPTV
human cathepsin S, sequence (P25774 115-331): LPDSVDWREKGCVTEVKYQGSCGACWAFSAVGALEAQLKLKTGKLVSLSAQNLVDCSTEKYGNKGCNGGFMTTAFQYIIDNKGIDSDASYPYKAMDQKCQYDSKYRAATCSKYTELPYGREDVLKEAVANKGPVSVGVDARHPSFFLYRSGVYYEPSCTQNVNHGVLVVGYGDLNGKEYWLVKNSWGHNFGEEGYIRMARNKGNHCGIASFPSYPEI

- IC50 [1]: 0.0013 µM
- IC50 [2]: > 10 µM
- Cmax ([3]; iv 1 mg/kg): 1240 ng/mL
- Tmax ([3]; iv 1 mg/kg): 0.33 h
- clearance ([3]; iv 1 mg/kg): 1.73 mL/min/kg
- AUC(0-inf) ([3]; iv 1 mg/kg): 9700 ng·h/mL
- AUC(0-t) ([3]; iv 1 mg/kg): 9280 ng·h/mL
- half-life ([3]; iv 1 mg/kg): 5.59 h
- Vd ([3]; iv 1 mg/kg, read-out: Vss): 0.69 L/kg
- Cmax ([3]; po 5 mg/kg): 2260 ng/mL
- Tmax ([3]; po 5 mg/kg): 3 h
- bioavailability ([3]; po 5 mg/kg vs iv 1 mg/kg): 46.9%
- AUC(0-inf) ([3]; po 5 mg/kg): 22700 ng·h/mL
- AUC(0-t) ([3]; po 5 mg/kg): 21900 ng·h/mL
- half-life ([3]; po 5 mg/kg): 5.06 h
- IC50 [4]: > 10 µM
- IC50 [5]: 5 µM
Structure (SMILES): CCOc1cc(-c2ccc3cc(C(=O)NC4(C(=O)NC5(C#N)CC5)CCC(F)(F)CC4)oc3c2)ccc1-n1cncn1 [Example 54, N-(1-((1-cyanocyclopropyl)carbamoyl)-4,4-difluorocyclohexyl)-6-(3-ethoxy-4-(1H-1,2,4-triazol-1-yl)phenyl)benzofuran-2-carboxamide]
